Experimental data as given in publication PMC7143421 (Marine Drugs, 2020).
Square brackets hold non-standard residues; d marks the D form. Peptide text beside a SMILES is read from it. Hyp = O=C(O)[C@@H]1C[C@@H](O)CN1

Key:
human NR2B [1] = molecular target: T1, human NR2B (Homo sapiens, UniProt Q13224); assay: cell-based
NR2A = NR2A (Homo sapiens, UniProt Q12879); type: cell-based
human NR2B [2] = molecular target: T1, human NR2B

T1 sequence (Q13224 whole entry, looked up): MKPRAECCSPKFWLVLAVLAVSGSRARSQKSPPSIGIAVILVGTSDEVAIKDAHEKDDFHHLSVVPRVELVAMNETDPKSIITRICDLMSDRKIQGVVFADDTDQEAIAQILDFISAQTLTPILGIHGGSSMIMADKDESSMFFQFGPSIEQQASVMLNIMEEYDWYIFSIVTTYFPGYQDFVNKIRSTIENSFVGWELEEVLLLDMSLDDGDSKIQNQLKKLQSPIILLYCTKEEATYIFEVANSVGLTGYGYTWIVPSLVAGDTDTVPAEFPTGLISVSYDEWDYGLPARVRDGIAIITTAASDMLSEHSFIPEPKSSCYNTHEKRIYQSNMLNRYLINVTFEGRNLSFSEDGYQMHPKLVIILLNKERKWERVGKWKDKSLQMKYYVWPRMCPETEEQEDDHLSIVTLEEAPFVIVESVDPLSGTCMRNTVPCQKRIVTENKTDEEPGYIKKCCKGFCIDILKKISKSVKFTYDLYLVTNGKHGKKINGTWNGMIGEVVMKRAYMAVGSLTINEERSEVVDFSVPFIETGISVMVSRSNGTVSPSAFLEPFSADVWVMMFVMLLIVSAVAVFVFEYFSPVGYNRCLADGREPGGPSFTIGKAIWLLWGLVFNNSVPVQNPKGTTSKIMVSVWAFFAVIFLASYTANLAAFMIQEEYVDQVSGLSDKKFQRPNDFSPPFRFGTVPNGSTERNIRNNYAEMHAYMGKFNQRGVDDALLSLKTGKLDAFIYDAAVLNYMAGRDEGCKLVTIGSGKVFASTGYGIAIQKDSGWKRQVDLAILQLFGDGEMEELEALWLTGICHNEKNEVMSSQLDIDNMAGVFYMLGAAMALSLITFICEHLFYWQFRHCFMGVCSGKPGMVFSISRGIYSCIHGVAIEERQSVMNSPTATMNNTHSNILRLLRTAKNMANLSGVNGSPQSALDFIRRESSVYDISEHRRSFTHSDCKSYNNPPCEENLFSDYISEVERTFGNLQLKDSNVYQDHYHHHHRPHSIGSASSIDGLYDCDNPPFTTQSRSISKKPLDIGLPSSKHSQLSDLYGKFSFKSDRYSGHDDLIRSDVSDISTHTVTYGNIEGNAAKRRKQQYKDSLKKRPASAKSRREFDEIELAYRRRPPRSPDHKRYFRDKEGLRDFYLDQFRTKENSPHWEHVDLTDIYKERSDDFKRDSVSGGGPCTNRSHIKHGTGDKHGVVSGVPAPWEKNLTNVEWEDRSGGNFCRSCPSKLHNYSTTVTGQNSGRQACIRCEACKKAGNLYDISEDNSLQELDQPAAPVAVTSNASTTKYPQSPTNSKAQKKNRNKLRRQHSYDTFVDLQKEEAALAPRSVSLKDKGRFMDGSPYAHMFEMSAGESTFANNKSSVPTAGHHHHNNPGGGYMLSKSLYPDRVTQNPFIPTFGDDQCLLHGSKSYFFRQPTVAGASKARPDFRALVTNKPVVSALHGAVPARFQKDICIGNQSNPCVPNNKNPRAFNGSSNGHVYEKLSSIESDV
NR2A, sequence (Q12879 whole entry, looked up): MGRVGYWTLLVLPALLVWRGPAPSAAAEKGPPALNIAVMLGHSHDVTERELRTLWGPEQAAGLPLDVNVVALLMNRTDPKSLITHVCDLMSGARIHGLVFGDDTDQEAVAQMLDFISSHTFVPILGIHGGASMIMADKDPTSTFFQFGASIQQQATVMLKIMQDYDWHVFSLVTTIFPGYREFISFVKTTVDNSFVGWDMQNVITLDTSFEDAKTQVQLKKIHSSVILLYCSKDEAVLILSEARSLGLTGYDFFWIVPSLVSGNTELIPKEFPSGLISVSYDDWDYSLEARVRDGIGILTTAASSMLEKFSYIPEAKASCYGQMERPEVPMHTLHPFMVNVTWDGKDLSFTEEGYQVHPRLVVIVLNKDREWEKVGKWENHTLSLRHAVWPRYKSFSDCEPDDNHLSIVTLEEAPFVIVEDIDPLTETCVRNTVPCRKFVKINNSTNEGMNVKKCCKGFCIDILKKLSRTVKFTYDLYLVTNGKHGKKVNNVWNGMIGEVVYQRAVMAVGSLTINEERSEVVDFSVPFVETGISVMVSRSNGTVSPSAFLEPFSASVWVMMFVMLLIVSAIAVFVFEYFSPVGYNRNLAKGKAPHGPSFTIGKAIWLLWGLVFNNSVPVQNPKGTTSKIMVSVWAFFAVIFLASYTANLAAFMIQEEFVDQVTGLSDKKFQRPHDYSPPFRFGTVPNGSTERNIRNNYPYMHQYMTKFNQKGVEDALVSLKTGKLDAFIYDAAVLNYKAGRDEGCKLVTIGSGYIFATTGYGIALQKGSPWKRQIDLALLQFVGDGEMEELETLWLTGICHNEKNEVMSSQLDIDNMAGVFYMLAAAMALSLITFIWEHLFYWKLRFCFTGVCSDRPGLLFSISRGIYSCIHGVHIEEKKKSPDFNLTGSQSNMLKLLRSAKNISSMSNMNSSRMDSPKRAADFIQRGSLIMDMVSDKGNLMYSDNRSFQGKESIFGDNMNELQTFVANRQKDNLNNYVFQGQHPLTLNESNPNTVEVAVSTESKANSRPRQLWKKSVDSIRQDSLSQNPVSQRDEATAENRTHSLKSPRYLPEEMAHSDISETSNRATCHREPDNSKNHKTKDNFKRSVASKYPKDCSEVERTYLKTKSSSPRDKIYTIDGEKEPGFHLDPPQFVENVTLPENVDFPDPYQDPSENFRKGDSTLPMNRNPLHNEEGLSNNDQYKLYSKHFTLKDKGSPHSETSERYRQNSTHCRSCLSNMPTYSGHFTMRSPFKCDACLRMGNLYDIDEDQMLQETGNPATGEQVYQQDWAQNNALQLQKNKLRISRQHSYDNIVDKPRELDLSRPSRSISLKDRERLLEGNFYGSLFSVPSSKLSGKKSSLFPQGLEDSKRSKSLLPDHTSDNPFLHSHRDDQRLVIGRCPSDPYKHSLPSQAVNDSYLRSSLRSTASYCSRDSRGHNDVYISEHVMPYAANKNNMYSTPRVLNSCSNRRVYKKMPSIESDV

CC(C)C[C@H](NC(=O)[C@H](Cc1ccc(O)cc1)NC(=O)[C@H](Cc1ccc(O)cc1)NC(=O)[C@@H](N)CC(N)=O)C(=O)N[C@@H](Cc1ccc(O)cc1)C(=O)N1C[C@H](O)C[C@H]1C(=O)N[C@@H](C)C(=O)N[C@@H](CCCNC(=N)N)C(=O)N1C[C@H](O)C[C@H]1C(=O)N[C@@H](CCC(=O)O)C(=O)N[C@@H](CC(N)=O)C(=O)N[C@@H](CO)C(=O)N[C@H](Cc1c[nH]c2ccccc12)C(=O)N[C@@H](Cc1c[nH]c2ccccc12)C(=O)N[C@H](C(=O)O)[C@@H](C)O [conotoxin-Ac1] (H-NYYLY[Hyp]AR[Hyp]ENS[dW]WT-OH)
IC50 (human NR2B [1]): 8.22 ± 0.022 µM | The Inhibition of Currents (%) NR2A (NR2A): 7.22% | The Inhibition of Currents (%) NR2B (human NR2B [2]): 51.69%
